Data taken from patent US20100022611A1 (THE UNIVERSITY COURT OF THE UNIVERSITY OF ABERDEEN, priority 2007, published 2010).
Like-named read-outs stand apart in the source and are kept apart here.

Tests used:
cannabinoid CB1 receptor = biological target: T1, cannabinoid CB1 receptor (Mus musculus, UniProt P47746); test: Mouse brain competition binding assay, [3H]CP55940 displacement
T1 construct: Whole brains from eight adult male mice were dissected and suspended in centrifugation buffer; from tissue; host or cells: mouse whole brain membranes
Description: The competition binding assay is a […] radioligand binding assay, which determines the affinity of a given compound for a specific receptor site, in this instance, the cannabinoid CB1 receptor. Mouse brain membranes were the chosen tissue due to their high expression of CB1 receptors.
Whole brains from eight adult male mice were dissected and suspended in centrifugation buffer. The brains were then homogenised with a Polytron Homogeniser prior to centrifugation at 1,600 RCF, 4° C. for 10 minutes. Centrifugation produced a supernatant, which was collected, and then the remaining pellet was re-suspended in centrifugation buffer and centrifuged as before. All supernatants were combined, and centrifuged at 28,000 RCF, 4° C. for a further 20 minutes. The supernatant was then discarded and the pellet re-suspended in Buffer A before incubation for 10 minutes at 37° C. The membrane suspension was then centrifuged at RCF 23,000, 4° C. for 20 minutes. The pellet was then re-suspended in Buffer A and incubated for 40 minutes at room temperature. The suspension was then centrifuged for 15 minutes at RCF 11,000, 4° C., and the pellet was then re-suspended in Buffer B. Finally a Protein Assay was carried out to determine the protein content of the mouse membrane preparation. The membrane samples were then made up into 1 mL aliquots of 1 mg/mL protein concentration and stored at −80° C. The samples were removed and defrosted when they were required.
The competition binding assay utilizes standard binding buffer, comprising:
10 μL of 1 mM stock of CP55940 in DMSO was added to 990 μL of binding buffer.
This was essential to obtain a value for specific binding, which is defined as the difference between the binding that occurs in the presence and absence of […] unlabelled CP55940.
(§1) Buffer; [^3H] […] The competition assay was initiated by the addition of the membranes. The assay was incubated at 37° C. in a water bath for 1 hour. The assay was terminated by addition of ice-cold Tris/BSA buffer and rapid vacuum filtration using a 24-well Brandel (cell harvester) and glass-fibre filters that had been soaked in Tris/BSA buffer at 4° C. for 24 hours. Each well was washed 6 times with 1.2 mL of Tris/BSA buffer. The filters were then oven dried for 1 hour. The sections of filter papers were then separated and placed in individual vials, to which 5 mL of scintillation fluid was added. The filter papers were soaked in the scintillation fluid for 1 hour before the radioactivity in each vial was quantified by liquid scintillation spectrometry.
Data were fitted to a one-site competition curve using GraphPad Prism 4.

CB1 receptor [1] = biological target: CB1 receptor (Homo sapiens, UniProt P21554); test: [35S]GTPγS binding, compound alone, 24 hours FBS-starved CB1 CHO cells; format: biochemical; settings: 1 nM to 10 μM
Description: (§2) The [^35S] GTPγS binding assay is simply a means of measuring G protein activation following agonist occupation of a GPCR. The significance of replacing endogenous GTP with radiolabeled [^35S] GTPγS is two-fold. […] GTPγS. Secondly, as with any radiolabelling, the aim is to allow quantitative analysis of a selected molecular species, in this case the degree of agonist binding can be gauged by measuring the subsequent levels of radioactivity in the desired tissue.
(§3) A vehicle control was an essential aspect of the experiment. […] The vehicle is made up of 10 μL of DMSO and 990 μL of binding buffer, resulting in the assay containing 0.1% vehicle.
as §1, with “[^35S]” for “[^3H]”, “GTPγS binding” for “competition”, “[^35S] GTPγS.” for “membranes.”, “have” for “had”
(§4) The data was fitted to a sigmoidal concentration-response curve using GraphPad Prism 4. Significance was defined by a one-sample t-test (GraphPad Prism 4), which compared mean % stimulation values S.E.M. to the basal binding level, 0.0% stimulation.
The vertical lines indicate S.E.M. (standard error of the mean) (*= P<0.05, **= P<0.01, ***= P<0.001, one-sample t-test) (n=4).

CB1 receptor [2] = biological target: T2, CB1 receptor (Mus musculus, UniProt P47746); test: [35S]GTPγS binding, compound alone (Table 2, Function); format: biochemical; parameters: from tissue
Description: as §2, §3
as §1, with “[^35S]” for “[^3H]”, “GTPγS binding” for “competition”, “[^35S] GTPγS.” for “membranes.”, “have” for “had”
as §4

CB1 receptor [3] = biological target: T2, CB1 receptor; test: [35S]GTPγS binding assay in mouse brain membranes, antagonism of CP55940; format: biochemical; parameters: Whole brains from eight adult male mice were dissected and suspended in centrifugation buffer; from tissue; host or cells: mouse whole brain membranes
Description: as §2, §3
as §1, with “[^35S]” for “[^3H]”, “GTPγS binding” for “competition”, “[^35S] GTPγS.” for “membranes.”, “have” for “had”
as §4

CB1 receptor [4] = biological target: T2, CB1 receptor; test: Electrically-evoked contractions of mouse isolated vas deferens, antagonism of CP55940; parameters: The isolated vas deferens was then removed from the mouse by cutting through its prostatic end; from tissue; host or cells: isolated vas deferens of male albino MF1 mice
Description: (§5) The vas deferens (or ductus deferens) is a muscular tube, approximately 3 mm in diameter and 30 cm in length, connecting the left and right epididymis to the ejaculatory ducts in order to move sperm. It is bound by connective tissue with an ample supply of blood vessels, nerves, and lymphatics. This in vitro bioassay exploits the expression of CB1 receptors on the presynaptic nerve terminals of this tubular structure.
(§6) The animals used in the study were male albino MF1 mice bred and were housed six to eight per-cage and were kept in a temperature-controlled room which was maintained on a fixed light-dark cycle. All mice were given free access to food and water. Subjects used in the study were a minimum of four weeks of age. Each mouse was stunned by striking the back of the head and killed by dislocation of the neck (cervical vertebrae). Following the killing, the mouse body weight was determined. A transverse incision, approximately of 1.5 cm, was made in the skin with the aid of dissection scissors. A similar-sized transverse incision was made through the lower abdominal wall. […] This was used to identify the vas deferens, which is attached to the testis via the epididymis. Gripping the epididymis with forceps, the vas deferens was cut free first from the testis and then from the connective tissue. The isolated vas deferens was then removed from the mouse by cutting through its prostatic end. This procedure was repeated on the right testis. It was important that throughout the latter two stages of this dissection, care was taken to ensure the vas deferens was not overstretched. In addition to their vas deferens, these animals were euthanized for use of their brain and small intestine by fellow researchers in different research fields. This minimisation of the number of animals euthanized complied with the European Community guidelines.
(§7) During transit, the two isolated vas deferens from each mice were kept moist in a glass vial filled with warm modified Mg^2+-free Krebs' solution. Before setting the tissue up in an organ bath, further removal of connective tissue, mesentery, and the epididymis was performed; cotton thread was tied securely to both end of the vas deferens.
(§8) The one-tailed thread was attached to the Pioden UF1 isometric transducer (Harvard Apparatus) and the two-tailed thread hung out of the bottom of the bath. The latter served as an anchor point for applying tension. […] Contractile activity was recorded using the isometric transducer and the output monitored by a computer connected to the data recording and analysis system (MacLab or PowerLab). The tissues were then ready for stimulation. […]

CB1 receptor [5] = biological target: T2, CB1 receptor; test: Electrically-evoked contractions of isolated mouse vas deferens, compound alone; parameters: The isolated vas deferens was then removed from the mouse by cutting through its prostatic end; from tissue; host or cells: isolated vas deferens of male albino MF1 mice; settings: 1 μM, tested alone
Description: as §5, §6, §7, §8

[6] = mouse brain membranes, [3H]CP55940 0.7 nM, read-out: Ki (nM) [affinity] Mouse Brain [3H]CP55940 Displacement

T1 sequence (P47746 whole entry): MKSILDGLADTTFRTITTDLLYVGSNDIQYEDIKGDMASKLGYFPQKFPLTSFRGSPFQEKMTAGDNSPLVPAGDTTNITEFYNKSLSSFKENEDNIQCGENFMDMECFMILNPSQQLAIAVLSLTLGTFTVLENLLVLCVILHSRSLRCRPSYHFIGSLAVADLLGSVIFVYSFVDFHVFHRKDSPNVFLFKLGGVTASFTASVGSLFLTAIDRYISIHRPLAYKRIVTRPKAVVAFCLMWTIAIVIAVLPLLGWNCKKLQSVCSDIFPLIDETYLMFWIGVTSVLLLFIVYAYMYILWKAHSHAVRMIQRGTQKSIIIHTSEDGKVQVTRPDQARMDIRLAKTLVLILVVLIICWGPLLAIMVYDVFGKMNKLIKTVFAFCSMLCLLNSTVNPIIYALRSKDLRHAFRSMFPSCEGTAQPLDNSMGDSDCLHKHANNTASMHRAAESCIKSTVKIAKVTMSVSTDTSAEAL
T2 sequence (P47746 whole entry): as above
CB1 receptor (Homo sapiens, UniProt P21554), sequence (P21554 whole entry): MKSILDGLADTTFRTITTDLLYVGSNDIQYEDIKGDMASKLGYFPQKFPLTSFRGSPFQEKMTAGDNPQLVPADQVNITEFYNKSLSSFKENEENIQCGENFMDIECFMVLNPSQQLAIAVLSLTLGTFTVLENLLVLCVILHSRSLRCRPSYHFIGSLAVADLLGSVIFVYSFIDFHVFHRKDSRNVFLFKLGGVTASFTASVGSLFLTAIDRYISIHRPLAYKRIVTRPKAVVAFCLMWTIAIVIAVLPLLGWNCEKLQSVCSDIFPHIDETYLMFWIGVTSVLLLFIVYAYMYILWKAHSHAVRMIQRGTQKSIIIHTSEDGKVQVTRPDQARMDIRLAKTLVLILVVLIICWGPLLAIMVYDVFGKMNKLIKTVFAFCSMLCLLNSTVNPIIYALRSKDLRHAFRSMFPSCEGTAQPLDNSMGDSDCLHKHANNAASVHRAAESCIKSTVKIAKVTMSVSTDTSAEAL

SMILES	Ki (cannabinoid CB1 receptor)	Effect on [35S]GTPγS binding, compound alone (CB1 receptor [1])	Function Mouse Brain [35S]GTPγS Alone (CB1 receptor [2]; compound alone)	Shift in the log concentration response curve for CP55940, [35S]GTPγS (CB1 receptor [3])	Shift in the log concentration response curve for CP55940, vas deferens contraction (CB1 receptor [4])	Effect on electrically-evoked contractions of isolated mouse vas deferens (CB1 receptor [5])	Ki (cannabinoid CB1 receptor; [6])	Function Mouse Brain [35S]GTPγS Alone (CB1 receptor [2])
Cc1c(C(O)CC2CCCCC2)nn(-c2ccc(Cl)cc2Cl)c1-c1ccc(Br)cc1 (stereo not shown) [ABD402, 1-[5-(4-Bromophenyl)-1-(2,4-dichlorophenyl)-4-methylpyrazol-3-yl]-2-cyclohexylethanol]	32.3 nM	no reduction	Neutral antagonist	right-ward shift	right-ward shift	neither inhibited nor significantly enhanced	–	–
COc1ccc(C(=O)c2nn(-c3ccc(Cl)cc3Cl)c(-c3ccc(Br)cc3)c2C)cc1 [ABD459]	–	–	Neutral antagonist	–	–	–	8.6 nM	–
Cc1c(C(=O)c2cccc(OC(F)(F)F)c2)nn(-c2ccc(Cl)cc2Cl)c1-c1ccc(Cl)cc1 [ABD454]	–	–	Neutral antagonist	–	–	–	26.7 nM	–
Cc1ccc(CC(=O)c2nn(-c3ccc(Cl)cc3Cl)c(-c3ccc(Br)cc3)c2C)cc1 [ABD440]	–	–	Neutral antagonist	–	–	–	27.1 nM	–
COc1cccc(C(=O)c2nn(-c3ccc(Cl)cc3Cl)c(-c3ccc(Br)cc3)c2C)c1 [ABD438]	7.7 nM	–	–	–	–	–	–	Neutral antagonist
Cc1c(C(=O)CC2CCCCC2)nn(-c2ccc(Cl)cc2Cl)c1-c1ccc(Br)cc1 [ABD399]	12.3 nM	no reduction	Neutral antagonist	right-ward shift	right-ward shift	neither inhibited nor significantly enhanced	–	–
COc1cccc(CC(=O)c2nn(-c3ccc(Cl)cc3Cl)c(-c3ccc(Br)cc3)c2C)c1 [ABD439]	–	–	Neutral antagonist	–	–	–	19.7 nM	–
Cc1ccc(C(=O)c2nn(-c3ccc(Cl)cc3Cl)c(-c3ccc(Cl)cc3)c2C)cc1C [ABD437]	14.2 nM	–	–	–	–	–	–	Neutral antagonist
Cc1c(C(=O)c2cccc(F)c2)nn(-c2ccc(Cl)cc2Cl)c1-c1ccc(Cl)cc1 [ABD453]	–	–	Neutral antagonist	–	–	–	13.8 nM	–
Cc1c(C(=O)Cc2ccc(F)cc2)nn(-c2ccc(Cl)cc2Cl)c1-c1ccc(Cl)cc1 [ABD436]	–	–	Neutral antagonist	–	–	–	7.15 nM	–
Cc1c(C(=O)CC2CCCCC2)nn(-c2ccc(Cl)cc2Cl)c1-c1ccc(Cl)cc1 [ABD395]	–	only a small increase	Neutral antagonist	right-ward shift	right-ward shift	neither inhibited nor significantly enhanced	3.78 nM	–
Cc1c(C(=O)c2ccc(F)cc2)nn(-c2ccc(Cl)cc2Cl)c1-c1ccc(Cl)cc1 [ABD450]	–	–	Neutral antagonist	–	–	–	63.2 nM	–
Cc1c(C(=O)c2cccc(C(F)(F)F)c2)nn(-c2ccc(Cl)cc2Cl)c1-c1ccc(Cl)cc1 [ABD449]	64.8 nM	–	–	–	–	–	–	Neutral antagonist
Cc1cccc(CC(=O)c2nn(-c3ccc(Cl)cc3Cl)c(-c3ccc(Cl)cc3)c2C)c1 [ABD434]	7.42 nM	–	–	–	–	–	–	Neutral antagonist
